Columns and labels:
[1] = test system: human patients suffering from relapsing multiple sclerosis (RMS); assay: Phase II RMS study: qualified relapse assessment (ARR, relapse-free status); type: in vivo; details: for Qualified relapse rate, adjusted / Qualified relapses, number of relapses: 24 weeks; for Proportion relapse-free / Unadjusted ARR: Week 24
Protocol: (§1) The assessing Investigator and central MRI reader were treatment blinded.
Subjects were assessed for MS relapse at visits beginning at Week 4. Relapse was also assessed at any Unscheduled Visit for Neurological Worsening and Relapse Assessment. For subjects in the OLE Period, MS relapse was assessed at all visits. A qualifying relapse was defined as new, worsening or recurrent neurological symptoms attributed to MS that last for at least 24 hours without fever or infection, or adverse reaction to prescribed medication, preceded by a stable or improving neurological status of at least 30 days. The relapse must have been accompanied by new clinical signs (i.e., changes in the neurological examination or an increase in EDSS score).
The protocol specified that all cases of potential relapse were to be objectively confirmed by the Investigator regardless of whether they were identified during a scheduled or unscheduled visit. Any assessments needed to confirm the relapse were to be performed, and details of the relapse were to be documented within the relevant section(s) of the eCRF.
Additional Secondary Endpoints
Analysis of secondary endpoints was based on the mITT analysis set. […] Descriptive statistics for ARR were calculated for each treatment group as the total number of qualified relapses divided by the number of subject-years of observation.
Primary and secondary efficacy endpoints were analysed based on the modified intention-to-treat (mITT) analysis set, consisting of all randomized patients with at least one available baseline and one post-baseline MRI assessment. […] For each endpoint, rate ratio (RR; null-hypothesis RR=1.0) adjusted for baseline disease activity was reported together with associated 95% CI and p-value. The T2 lesion endpoint was analysed similarly. Dose-response relationships between evobrutinib treatment dose and primary and key secondary endpoints were assessed for linear and monotonic trend. The analysis of CFB in cube root of volume of T2 lesions at Week 24 was based on a mixed-effect model for repeated measures, with fixed effects for treatment, week of visit, and treatment-by-week interaction, random effect for subject, and adjustment for baseline cube root of lesion volume. CFB in SF-36 score at Week 24 was analysed similarly. Descriptive statistics were used to further describe the study outcomes.

[2] = Phase II RMS study: safety (adverse events, laboratory) over 24 weeks; type: in vivo
Protocol: as §1
Safety profile of the IMP was assessed through the recording, reporting and analysis of baseline medical conditions; AEs; physical examination findings including vital signs, ECGs, and laboratory tests (including Ig and subclass concentration and B, NK, and T cell counts). Comprehensive assessment of any apparent toxicity experienced by each subject was performed from the time of giving informed consent and throughout the trial. The Investigator was to report any AEs, whether observed by the Investigator or reported by the subject.
Adverse Event: An AE was any untoward medical occurrence in a subject or clinical investigation subject administered a pharmaceutical product, regardless of causal relationship with this treatment. An AE could therefore be any unfavorable and unintended sign (including an abnormal laboratory finding), symptom, or disease temporally associated with the use of a medicinal product, whether or not considered related to the medicinal product.
The Investigator was required to grade the severity or toxicity of each AE. Investigators referenced the National Cancer Institute-Common Terminology Criteria for AEs (NCI-CTCAE), Version 4.03 (publication date: 14 Jun. 2010) a descriptive terminology provided in the Manual of Procedures that can be used for AE reporting.
A general grading (severity/intensity; hereafter referred to as severity) scale was provided at the beginning of the above referenced document, and specific event grades were also provided. Only if a particular AE's severity was not specifically graded by the guidance document, then the Investigator was to use the general NCI-CTCAE definitions of Grade 1 through Grade 5 following his or her best medical judgment. The 5 general grades are: • Grade 1 or Mild • Grade 2 or Moderate • Grade 3 or Severe • Grade 4 or Life-threatening • Grade 5 or Death.
Serious Adverse Events: An SAE is any untoward medical occurrence that at any dose: • Results in death. • Is life-threatening. (Note: The term “life-threatening” refers to an event in which the subject is at risk of death at the time of the event, not an event that hypothetically might have caused death if it was more severe) • Requires inpatient hospitalization or prolongs an existing hospitalization, except in the case of hospitalizations due to protocol-defined relapses. • Results in persistent or significant disability or incapacity. • Is a congenital anomaly or birth defect. • Is otherwise considered to be medically important.

Structure (SMILES): C=CC(=O)N1CCC(CNc2ncnc(N)c2-c2ccc(Oc3ccccc3)cc2)CC1 [Evobrutinib, 1-(4-(((6-amino-5-(4-phenoxyphenyl)pyrimidin-4-yl)amino)methyl)piperidin-1-yl)prop-2-en-1-one]
- Qualified relapse rate, adjusted ([1]; 25 mg QD): 0.47
- Qualified relapses, number of relapses ([1]; 25 mg QD): 12 n
- Proportion relapse-free ([1]; 25 mg QD): 76.0%
- Unadjusted ARR ([1]; 25 mg QD): 0.52
- Proportion relapse-free ([1]; 25 mg QD, listed as evobrutinib): 76%
- Qualified relapse rate, adjusted ([1]; 75 mg BID): 0.07
- Qualified relapses, number of relapses ([1]; 75 mg BID): 2 n
- Proportion relapse-free ([1]; 75 mg BID): 86.8%
- Unadjusted ARR ([1]; 75 mg BID): 0.08
- Proportion relapse-free ([1]; 75 mg BID, listed as evobrutinib): 87%
- Qualified relapse rate, adjusted ([1]; 75 mg QD): 0.10
- Qualified relapses, number of relapses ([1]; 75 mg QD): 3 n
- Proportion relapse-free ([1]; 75 mg QD): 88.2%
- Unadjusted ARR ([1]; 75 mg QD): 0.13
- Proportion relapse-free ([1]; 75 mg QD, listed as evobrutinib): 88%
- Deaths or additional emerging safety signals ([2]; 24 weeks): no deaths or additional emerging safety signals
- TEAEs of grade 4 or 5 ([2]; human, in vivo, 24 weeks): no TEAEs of grade 4 or 5
- Hematological abnormalities, such as lymphopenia ([2]; in vivo): None of the three evobrutinib doses were associated with hematological abnormalities, such as lymphopenia
- Hy's Law cases among Grade 3 transaminase elevations ([2]; in vivo): no Hy's Law cases
- Infection rates versus placebo ([2]; in vivo): lower than those with placebo

Reference: US12251382B2, “Substituted amino-pyrimidine compound for use in a method for treatment and prevention of multiple sclerosis” (Merck Patent GmbH, priority 2018, dated 2025)
